Reference: patent US9018248B2, “Fatty acid derivatives of catechins and methods of their use” (Genesis Group Inc., priority 2010, dated 2015)
Marks after values point to notes of the source that are not given here.

What was measured:
[1] = TBARS formation in cooked pork model system; details: 80 μmol/kg meat, stored at 4° C.
Procedure: Fresh ground pork (40 g) was mixed with deionized water (10 g) in a Mason jar. Samples and reference antioxidant compound (BHA) dissolved in ethanol were added to meat at a level of 80 μmol/kg. A control without any antioxidant was also prepared. The content was thoroughly mixed and cooked at 80° C. in a thermostated water bath for 40 min with intermittent stirring. The cooked meat was cooled to room temperature and homogenized with a Polytron PT 3000 (Brinkmann Instruments, Rexdale, ON) homogenizer. The homogenate was then transferred into plastic bags and stored at 4° C. for 14 days. […].
TBARS values were determined as described by Shahidi and Hong (Shahidi, F. and Hong, C. Evaluation of malonaldehyde as a marker of oxidative rancidity in meat products. J. Food Biochem. 15, 97-105, 1991).
A series of TMP (1,1,3,3-tetramethoxypropane) standard solutions at difference concentrations was mixed with thiobarbituric acid (TBA) in screw-capped tubes and heated in a boiling water bath for 45 min. After cooling on ice, the absorbance was recorded at 532 nm and a standard curve was constructed (absorbance versus concentration). For TBARS in the cooked meat model system, 2 g of meat were mixed with 5 ml of trichloroacetic acid (TCA, 10% w/v) in a centrifuge tube, followed by addition of 5 ml of TBA reagent. The mixture was centrifuged at 3000×g for 10 min and the supernatant was filtered. The filtrate was heated in a boiling water bath for 45 min and absorbance was measured at 532 nm after cooling to room temperature. TBARS values in meat samples were obtained using the standard curve as μmol malonaldehyde equivalents/kg of meat. Antioxidant activity was calculated as percentage inhibition of TBARS formation by test compounds.

[2] = Metal chelation capacity (ferrozine); details: test compounds 1 mM ethanolic solution, FeCl2, ferrozine
Procedure: An ORAC (Oxygen Radical Absorbance Capacity) assay was carried out using a Fluostar Optima plate reader (BMG Labtech, Durham, N.C.) equipped with an incubator and two injector pumps. A modified method for lipophilic antioxidants was followed, in which randomly methylated cyclodextrin (RMCD) was used as water solubility enhancer, as described by Huang et al, J. Agric. Food Chem., 2002, 50, 1815-1821. Trolox standards (6.25-50 μM) and samples (0.25 μM) were dissolved in acetone/water (1:1, v/v) containing 7% RMCD. Fluorescein and […] [2,2′-azobis(2-aminopropane)dihydrochloride] were used as the probe and radical generator, respectively. Twenty microliters of trolox standard or test compound solutions (7% RMCD used as a control) were added into each well of a 96-well black microplate, followed by addition of fluorescein. The plate was incubated at 37° C. for 15 min and then AAPH in buffer was injected into the wells. The conditions used were as follows: 0.3 s position delay, 8 s orbital shaking before each cycle with 4 mm width, 210 s cycle time, and 25 cycles. Fluorescence was measured at an excitation wavelength of 485 nm and emission of 520 nm. A standard curve was plotted and ORAC values for test compounds were obtained as mol of trolox equivalents (TE) per mol of test compound. (3b) Reducing Power The reducing power of EGCG and its derivatives (compounds 1a-1c) was determined according to Oyaizu (1986). One milliliter of test compounds (1 mM in 95% ethanol) was mixed with 2.5 ml of phosphate buffer solution (PBS, 0.2 M, pH 6.6) and 2.5 ml of a 1% solution of potassium ferricyanide, K3Fe(CN)6. The mixture was incubated at 50° C. for 20 min. […] The content was mixed well and the absorbance was recorded at 700 nm. Higher absorbance of the reaction mixture indicates greater reducing power. […] (3c) Metal Chelation The metal chelation capacity was measured following a procedure by Decker E. A. et al., J. Agric. […] The absorbance was measured afterwards at 562 nm. A blank without ferrozine was run for each compound, since the antioxidant-Fe^2+ complex gives a colour that might interfere with the absorbance reading. Metal chelation capacity was calculated using the following equation: % chelation=[1−(Abs.sample−Abs.blank)/Abs.control]×100 where, control was devoid of test compounds, while blank contained no ferrozine. (3d) DPPH Antioxidant activity of the lipophilic EGCG derivatives was ALSO evaluated as DPPH (1,1-diphenyl-2-picrylhydrazyl) radical scavenging capacity using EGCG as the reference. DPPH scavenging capacity of test compounds was determined by EPR (electron paramagnetic resonance) according to Madhujith and Shahidi (16) with slight modifications. […] The spectrum was recorded after 1 min. […]

What does the source list for `CCCCCCCCCCCCCCCCCC(=O)Oc1cc(C(=O)OC2Cc3c(O)cc(O)cc3OC2c2cc(OC(=O)CCCCCCCCCCCCCCCCC)c(O)c(OC(=O)CCCCCCCCCCCCCCCCC)c2)cc(OC(=O)CCCCCCCCCCCCCCCCC)c1O` (centres unmarked) [Compound 1a, EGCG stearate]?
Inhibition of TBARS formation in cooked pork [1]: 86.3 ± 2.10^a %; Metal chelation [2]: 8.33%

For `CCC=CCC=CCC=CCC=CCC=CCCCC(=O)Oc1cc(C(=O)OC2Cc3c(O)cc(O)cc3OC2c2cc(OC(=O)CCCC=CCC=CCC=CCC=CCC=CCC)c(O)c(OC(=O)CCCC=CCC=CCC=CCC=CCC=CCC)c2)cc(OC(=O)CCCC=CCC=CCC=CCC=CCC=CCC)c1O` (centres unmarked) [Compound 1b], which “Inhibition of TBARS formation in cooked pork” value [1] is on record?
The value was 80.5 ± 0.80^bc %.

And the Metal chelation [2]?
Its Metal chelation is 35.42%.

What does the source list for `CCC=CCC=CCC=CCC=CCC=CCC=CCCC(=O)Oc1cc(C(=O)OC2Cc3c(O)cc(O)cc3OC2c2cc(OC(=O)CCC=CCC=CCC=CCC=CCC=CCC=CCC)c(O)c(OC(=O)CCC=CCC=CCC=CCC=CCC=CCC=CCC)c2)cc(OC(=O)CCC=CCC=CCC=CCC=CCC=CCC=CCC)c1O` (centres unmarked) [Compound 1c]?
Inhibition of TBARS formation in cooked pork [1]: 78.4 ± 1.62^c %; Metal chelation [2]: 28.13%

Which “Inhibition of TBARS formation in cooked pork” value [1] does the source give for `O=C(O[C@@H]1Cc2c(O)cc(O)cc2O[C@@H]1c1cc(O)c(O)c(O)c1)c1cc(O)c(O)c(O)c1` [EGCG, Epigallocatechin gallate, reference compound] here?
Its value is 71.9 ± 1.56^d %.

And the Metal chelation [2]?
The Metal chelation was 10.42%.
